In brackets after ≈: the same amount, converted by molar mass. Blank lines part the entries; values can stand above or below the molecule they belong to.
Experiments:
[1] = set-up: method as in doi:10.1134/s1070363221010114; conditions: standard antioxidant; read-out: IC50 toward ABTS•+ radical cation; cited from earlier work
[2] = system: Staphylococcus aureus (ATCC 25923); set-up: method as in PMID 25708540; conditions: S. aureus (G+), reference drug; cited from earlier work
[3] = system: Escherichia coli (ATCC 25922); set-up: method as in PMID 25708540; conditions: E. coli (G-), reference drug; cited from earlier work
[4] = system: Candida albicans (ATCC 10231); set-up: method as in PMID 25708540; conditions: C. albicans, reference drug; cited from earlier work

SMILES: Cc1c(C)c2c(c(C)c1O)CCC(C)(C(=O)O)O2 (stereo not drawn) [Trolox, trolox]
- IC50 [1]: 33 ± 0.7 µM

- melting point: 180 to 182 °C
SMILES: C=CCNC(=S)NN=Cc1cccnc1

- melting point: 163 to 165 °C
SMILES: C=CCNC(=S)NN=Cc1ccncc1

SMILES: NC(=O)N/N=C/c1ccc([N+](=O)[O-])o1 [Furacillinum, furacillinum]
- MBC [2]: 9.3 µg/mL (≈ 46.9 µM)
- MIC [2]: 9.3 µg/mL (≈ 46.9 µM)
- MBC [3]: 37.5 µg/mL (≈ 189 µM)
- MIC [3]: 18.5 µg/mL (≈ 93.4 µM)

SMILES: C[C@@H]1[C@H](O)[C@@H](C)/C=C/C=C/CC/C=C/C=C/C=C/C=C/C(O[C@H]2O[C@H](C)[C@@H](O)[C@H](N)[C@@H]2O)CC2O[C@](O)(CC(O)C(O)CCC(O)CC(O)CC(O)CC(=O)O[C@H]1C)CC(O)C2C(=O)O (stereo partly drawn) [Nystatin, nystatin]
- MFC [4]: 80 µg/mL (≈ 86.4 µM)
- MIC [4]: 80 µg/mL (≈ 86.4 µM)
